In US20200407717A1, “METHODS OF MODULATING ANTISENSE ACTIVITY” (Ionis Pharmaceuticals, Inc., priority 2018, published 2020):
e = 2'-O-(2-methoxyethyl) (MOE); d = 2'-deoxy (DNA)

System: Malat1 RNA
Assay: Antisense activity by RT-qPCR, Malat1, A431 cells
Type: cell-based
Method: A431 cells were grown at 10,000 cells per well and pre-treated with a variety of growth factors to determine if the addition of exogenous growth factors affects antisense activity or uptake of modified antisense oligonucleotides in a cell. The growth factors used were EGF, insulin growth factor (IGF), transforming growth factor (TGF), […] (VEGF), hepatocyte growth factor (HGF), platelet growth factor (PGF) and fibroblasts growth factor (FGF). To test antisense activity, cells were treated for 4 hours with a growth factor or vehicle alone, and then treated with compound no. 25690 (complementary to Drosha), compound no. 395254 (complementary to Malat1), or vehicle alone. RNA was isolated from the cells and Drosha or Malat1 RNA levels were measured by RT-qPCR. Human primer probe set 13816 (forward sequence […], designated herein as SEQ ID NO: 3; reverse sequence […], designated herein as SEQ ID NO: 4; probe sequence […], designated herein as SEQ ID NO: 5) was used to measure Drosha mRNA levels and primer probe set RTS2736 (forward sequence […], designated herein as SEQ ID NO: 6; reverse sequence […], designated herein as SEQ ID NO: 7; probe sequence TGCCACATCGCCACCCCGT, designated herein as SEQ ID NO: 8) was used to measure Malat1 RNA levels. Drosha and Malat1 RNA levels were normalized to total RNA content, as measured by RIBOGREEN®. Results are presented in the tables below as normalized RNA levels, relative to untreated control cells.
A431 cells were treated with EGF or TGF at 200 ng/mL in the presence or absence of 1 μM of the EGFR tyrosine kinase inhibitor PD174265. The cells were then treated with compound no. 25690 or compound no. 395254 as in Example 8. Total RNA was isolated and analyzed by RT-qPCR, as in Example 8.
Following siRNA treatment, cells were treated with compound no. 25690 or compound no. 395254 in the presence or absence of EGF. 16 hours after treatment with a PS-ASO with or without EGF, cells were harvested, and RNA levels were analyzed via RT-qPCR as in Example 8.

GGCATATGCAGATAATGTTC (sugars from the 5' end e5 d10 e5, all phosphorothioate, methylation of C not given here) [compound 395254]
Malat1 RNA (% Control) (2.0 nM, Control): 100.0 % Control | Malat1 RNA (% Control) (2.0 nM, Control Luciferase siRNA): 100.0 % Control | Malat1 RNA (% Control) (2.0 nM, Control Luciferase siRNA, Table 27): 100 % Control | Malat1 RNA (% Control) (2.0 nM, Control luciferase + EGF): 100 % Control | Malat1 RNA (% Control) (2.0 nM, Control, Table 21): 100.0 % Control | Malat1 RNA (% Control) (2.0 nM, EGF): 100.0 % Control | Malat1 RNA (% Control) (2.0 nM, EGFR siRNA-1): 100.0 % Control | Malat1 RNA (% Control) (2.0 nM, EGFR siRNA-2): 100.0 % Control | Malat1 RNA (% Control) (2.0 nM, EGFR siRNA-2 + EGF): 100 % Control | Malat1 RNA (% Control) (2.0 nM, EGFR siRNA-2, Table 27): 100 % Control | Malat1 RNA (% Control) (2.0 nM, TGF): 100.0 % Control | Malat1 RNA (% Control) (2.0 nM, TGF+PD174265): 100.0 % Control | Malat1 RNA (% Control) (2.0 nM, TGF, Table 21): 100.0 % Control | Malat1 RNA (% Control) (3.9 nM, Control): 109.0 % Control | Malat1 RNA (% Control) (3.9 nM, Control Luciferase siRNA): 72.7 % Control | Malat1 RNA (% Control) (3.9 nM, Control Luciferase siRNA, Table 27): 110.2 % Control | Malat1 RNA (% Control) (3.9 nM, Control luciferase + EGF): 108.2 % Control | Malat1 RNA (% Control) (3.9 nM, Control, Table 21): 110.2 % Control | Malat1 RNA (% Control) (3.9 nM, EGF): 76.0 % Control | Malat1 RNA (% Control) (3.9 nM, EGFR siRNA-1): 108.4 % Control | Malat1 RNA (% Control) (3.9 nM, EGFR siRNA-2): 90.4 % Control | Malat1 RNA (% Control) (3.9 nM, EGFR siRNA-2 + EGF): 108.2 % Control | Malat1 RNA (% Control) (3.9 nM, EGFR siRNA-2, Table 27): 105.2 % Control | Malat1 RNA (% Control) (3.9 nM, TGF): 99.9 % Control | Malat1 RNA (% Control) (3.9 nM, TGF+PD174265): 108.2 % Control | Malat1 RNA (% Control) (3.9 nM, TGF, Table 21): 105.2 % Control | Malat1 RNA (% Control) (7.8 nM, Control): 127.0 % Control | Malat1 RNA (% Control) (7.8 nM, Control Luciferase siRNA): 81.9 % Control | Malat1 RNA (% Control) (7.8 nM, Control Luciferase siRNA, Table 27): 99.3 % Control | Malat1 RNA (% Control) (7.8 nM, Control luciferase + EGF): 91.2 % Control | Malat1 RNA (% Control) (7.8 nM, Control, Table 21): 99.3 % Control | Malat1 RNA (% Control) (7.8 nM, EGF): 98.1 % Control | Malat1 RNA (% Control) (7.8 nM, EGFR siRNA-1): 103.1 % Control | Malat1 RNA (% Control) (7.8 nM, EGFR siRNA-2): 85.1 % Control | Malat1 RNA (% Control) (7.8 nM, EGFR siRNA-2 + EGF): 99.2 % Control | Malat1 RNA (% Control) (7.8 nM, EGFR siRNA-2, Table 27): 105.2 % Control | Malat1 RNA (% Control) (7.8 nM, TGF): 101.8 % Control | Malat1 RNA (% Control) (7.8 nM, TGF+PD174265): 91.2 % Control | Malat1 RNA (% Control) (7.8 nM, TGF, Table 21): 105.2 % Control | Malat1 RNA (% Control) (15.6 nM, Control): 125.6 % Control | Malat1 RNA (% Control) (15.6 nM, Control Luciferase siRNA): 61.0 % Control | Malat1 RNA (% Control) (15.6 nM, Control Luciferase siRNA, Table 27): 87.2 % Control | Malat1 RNA (% Control) (15.6 nM, Control luciferase + EGF): 67.2 % Control | Malat1 RNA (% Control) (15.6 nM, Control, Table 21): 77.2 % Control | Malat1 RNA (% Control) (15.6 nM, EGF): 96.4 % Control | Malat1 RNA (% Control) (15.6 nM, EGFR siRNA-1): 98.4 % Control | Malat1 RNA (% Control) (15.6 nM, EGFR siRNA-2): 82.5 % Control | Malat1 RNA (% Control) (15.6 nM, EGFR siRNA-2 + EGF): 99.2 % Control | Malat1 RNA (% Control) (15.6 nM, EGFR siRNA-2, Table 27): 97.2 % Control | Malat1 RNA (% Control) (15.6 nM, TGF): 93.2 % Control | Malat1 RNA (% Control) (15.6 nM, TGF+PD174265): 77.2 % Control | Malat1 RNA (% Control) (15.6 nM, TGF, Table 21): 107.2 % Control | Malat1 RNA (% Control) (31.3 nM, Control): 120.2 % Control | Malat1 RNA (% Control) (31.3 nM, Control Luciferase siRNA): 47.0 % Control | Malat1 RNA (% Control) (31.3 nM, Control Luciferase siRNA, Table 27): 76.3 % Control | Malat1 RNA (% Control) (31.3 nM, Control luciferase + EGF): 58.7 % Control | Malat1 RNA (% Control) (31.3 nM, Control, Table 21): 66.3 % Control | Malat1 RNA (% Control) (31.3 nM, EGF): 111.9 % Control | Malat1 RNA (% Control) (31.3 nM, EGFR siRNA-1): 67.4 % Control | Malat1 RNA (% Control) (31.3 nM, EGFR siRNA-2): 57.7 % Control | Malat1 RNA (% Control) (31.3 nM, EGFR siRNA-2 + EGF): 114.0 % Control | Malat1 RNA (% Control) (31.3 nM, EGFR siRNA-2, Table 27): 95.9 % Control | Malat1 RNA (% Control) (31.3 nM, TGF): 109.8 % Control | Malat1 RNA (% Control) (31.3 nM, TGF+PD174265): 68.7 % Control | Malat1 RNA (% Control) (31.3 nM, TGF, Table 21): 55.9 % Control | Malat1 RNA (% Control) (62.5 nM, Control): 109.6 % Control | Malat1 RNA (% Control) (62.5 nM, Control Luciferase siRNA): 33.2 % Control | Malat1 RNA (% Control) (62.5 nM, Control Luciferase siRNA, Table 27): 67.2 % Control | Malat1 RNA (% Control) (62.5 nM, Control luciferase + EGF): 54.2 % Control | Malat1 RNA (% Control) (62.5 nM, Control, Table 21): 57.2 % Control | Malat1 RNA (% Control) (62.5 nM, EGF): 85.9 % Control | Malat1 RNA (% Control) (62.5 nM, EGFR siRNA-1): 45.0 % Control | Malat1 RNA (% Control) (62.5 nM, EGFR siRNA-2): 43.6 % Control | Malat1 RNA (% Control) (62.5 nM, EGFR siRNA-2 + EGF): 79.7 % Control | Malat1 RNA (% Control) (62.5 nM, EGFR siRNA-2, Table 27): 77.2 % Control | Malat1 RNA (% Control) (62.5 nM, TGF): 91.4 % Control | Malat1 RNA (% Control) (62.5 nM, TGF+PD174265): 54.2 % Control | Malat1 RNA (% Control) (62.5 nM, TGF, Table 21): 47.2 % Control | Malat1 RNA (% Control) (125 nM, Control): 131.6 % Control | Malat1 RNA (% Control) (125 nM, Control Luciferase siRNA): 18.9 % Control | Malat1 RNA (% Control) (125 nM, Control Luciferase siRNA, Table 27): 44 % Control | Malat1 RNA (% Control) (125 nM, Control luciferase + EGF): 37.0 % Control | Malat1 RNA (% Control) (125 nM, Control, Table 21): 44.0 % Control | Malat1 RNA (% Control) (125 nM, EGF): 62.3 % Control | Malat1 RNA (% Control) (125 nM, EGFR siRNA-1): 26.5 % Control
